# Reference: ChEMBL document CHEMBL4316654, “Prenylated Acylphloroglucinols from Hypericum faberi” (J Nat Prod, 2019)
# What was measured:
# Type in all cases: functional, cell-based
# PANC-1 = experiment: Cytotoxicity against human PANC1 cells incubated for 48 hrs by MTT assay; details: PANC-1, 48 h
# ECa-109 cell line = experiment: Cytotoxicity against human ECA109 cells incubated for 48 hrs by MTT assay; details: ECa-109, 48 h
# [1] = Cytotoxicity against human BIU87 cells incubated for 48 hrs by MTT assay; details: BIU87, 48 h
SMILES,IC50 (PANC-1),IC50 (ECa-109 cell line),IC50 [1]
CCC(C)C(=O)c1c(O)c(C/C=C(\C)CCC=C(C)C)c(O)c2cc(-c3ccccc3)oc12 (stereo not given),6.2 µM,,
CC(=O)O[C@H]1C(=O)[C@@]2(C)[C@H]([C@H](OC(=O)c3ccccc3)[C@]3(O)C[C@H](OC(=O)[C@H](O)[C@@H](NC(=O)c4ccccc4)c4ccccc4)C(C)=C1C3(C)C)[C@]1(OC(C)=O)CO[C@@H]1C[C@@H]2O [PACLITAXEL],3.5 µM,1.2 µM,2.1 µM
CC(C)=CCC/C(C)=C/Cc1c(O)c(C(=O)C(C)C)c2oc(-c3ccc(O)cc3)cc2c1O,9 µM,,
